Values of other authors as cited in US7528137B2, “Compounds, compositions, and methods” (Cytokinetics, Inc., priority 2002, dated 2009).

Tested on: A549 cells
Settings: data provided by National Cancer Institute, Developmental Therapeutic Program
For `O=c1[nH]cc(F)c(=O)[nH]1` [5-fluorouracil], the GI50 is given as 1000 nM.
For `COc1cccc2c1C(=O)c1c(O)c3c(c(O)c1C2=O)C[C@@](O)(C(=O)CO)C[C@@H]3O[C@H]1C[C@H](N)[C@H](O)[C@H](C)O1` [doxorubicin], the GI50 is given as 63 nM.
In the case of `NC(=O)NO` [hydroxyurea], the GI50 is given as 500000 nM.
In the case of `CC(=O)O[C@H]1C(=O)[C@@]2(C)[C@H]([C@H](OC(=O)c3ccccc3)[C@]3(O)C[C@H](OC(=O)[C@H](O)[C@@H](NC(=O)c4ccccc4)c4ccccc4)C(C)=C1C3(C)C)[C@]1(OC(C)=O)CO[C@@H]1C[C@@H]2O` [paclitaxel], the GI50 is listed as 4 nM.
